In ChEMBL document CHEMBL1127384, “Design, synthesis, and conformational analysis of a novel macrocyclic HIV-protease inhibitor” (J Med Chem, 1994):

Molecular target: Human immunodeficiency virus type 1 protease (Human immunodeficiency virus 1, UniProt Q72874)
Assay: In vitro ability to inhibit HIV-protease.

SMILES | Ki [nM]
CC(C)[C@H](NC(=O)OCc1ccccc1)C(=O)N[C@@H](Cc1ccc(OCc2ccccc2)cc1)C(=O)C(F)(F)C(=O)NCc1ccccc1 | 5
CC(C)[C@@H]1NC(=O)CNC(=O)COc2ccc(cc2)C[C@@H](C(=O)C(F)(F)C(=O)NCc2ccccc2)NC1=O | 20
